These results are taken from ChEMBL document CHEMBL1138423, “TOMOCOMD-CARDD descriptors-based virtual screening of tyrosinase inhibitors: evaluation of different classification model combinations using bond-based linear indices” (Bioorg Med Chem, 2007).

For the experiment, the target named is T1, Tyrosinase (Agaricus bisporus, UniProt O42713).
T1 sequence (O42713 whole entry): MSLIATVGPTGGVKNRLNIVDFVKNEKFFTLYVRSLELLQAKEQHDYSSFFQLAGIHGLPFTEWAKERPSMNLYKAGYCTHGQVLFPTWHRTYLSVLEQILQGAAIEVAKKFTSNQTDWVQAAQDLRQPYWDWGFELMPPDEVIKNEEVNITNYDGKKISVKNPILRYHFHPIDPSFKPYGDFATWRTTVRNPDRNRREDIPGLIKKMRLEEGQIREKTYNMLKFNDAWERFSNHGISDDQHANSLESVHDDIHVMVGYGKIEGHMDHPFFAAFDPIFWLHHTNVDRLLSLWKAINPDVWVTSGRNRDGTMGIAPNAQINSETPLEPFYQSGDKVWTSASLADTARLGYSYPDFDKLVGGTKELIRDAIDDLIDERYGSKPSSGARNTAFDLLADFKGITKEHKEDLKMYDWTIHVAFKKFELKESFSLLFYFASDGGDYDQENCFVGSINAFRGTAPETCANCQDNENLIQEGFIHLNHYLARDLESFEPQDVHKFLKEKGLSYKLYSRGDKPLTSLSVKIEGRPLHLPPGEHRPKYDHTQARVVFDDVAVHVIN
Description: Inhibition of mushroom tyrosinase after 10 mins.
The IC50 is the point on the concentration scale where inhibition reaches its midpoint. The low end stands for inhibition by little substance, the high end for a need for much substance. In turn, `C#CC1(O)CC[C@H]2[C@@H]3CCC4=CC(=O)C=C[C@]4(C)[C@H]3CC[C@@]21C` (single isomer, unassigned) had an IC50 of 7.89 µM.

In the case of `CC[C@]1(O)CC[C@H]2[C@@H]3CCC4=CC(=O)C=C[C@]4(C)[C@H]3CC[C@@]21C`, the IC50 came out at 3.46 µM. Then `C#CC1(O)CC[C@H]2[C@@H]3CCC4=CC(=O)CC[C@]4(C)[C@H]3CC[C@@]21C` (single isomer, unassigned) [ETHISTERONE], with 2.61 µM; and `CC[C@]1(O)CC[C@H]2[C@@H]3CCC4=CC(=O)CC[C@]4(C)[C@H]3[C@H](O)C[C@@]21C`, with 1.72 µM; and `CC[C@]1(O)CC[C@H]2[C@@H]3CCC4=CC(=O)CC[C@]4(C)[C@H]3CC[C@@]21C`, with 1.53 µM.

As for `C#CC1(O)CC[C@H]2[C@@H]3CCC4=CC(=O)CC[C@]4(C)[C@H]3[C@H](O)C[C@@]21C` (single isomer, unassigned), the IC50 is 5.95 µM.
